Laboratory results from ChEMBL document CHEMBL1125617, “N6-substituted adenosine receptor agonists: potential antihypertensive agents” (J Med Chem, 1991).

Experiments:
Rattus norvegicus [1] = assay: Antihypertensive activity was measured as change in blood pressure for a 10-h after 10 mg/kg oral dose; type: functional
Adenosine receptor A1 = biological target: T1, Adenosine receptor A1 (Rattus norvegicus, UniProt P25099); assay: Binding affinity towards adenosine A1 receptor
T1 sequence (P25099 whole entry): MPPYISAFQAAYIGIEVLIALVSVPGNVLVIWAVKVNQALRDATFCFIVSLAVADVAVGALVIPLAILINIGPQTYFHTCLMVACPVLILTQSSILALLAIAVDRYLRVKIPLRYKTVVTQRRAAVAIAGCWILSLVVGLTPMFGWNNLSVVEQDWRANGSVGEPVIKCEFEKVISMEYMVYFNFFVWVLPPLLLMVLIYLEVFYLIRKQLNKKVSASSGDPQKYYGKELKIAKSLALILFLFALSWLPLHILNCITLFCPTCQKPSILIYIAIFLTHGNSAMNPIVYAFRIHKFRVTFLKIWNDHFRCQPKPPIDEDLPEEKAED

Adenosine A2 receptor = Adenosine A2 receptor (Rattus norvegicus, UniProt P29276+P30543); assay: Binding affinity towards adenosine A2 receptor; type: protein assay
[2] = biological target: Adenosine receptors; A1 & A2 (Rattus norvegicus) (UniProt P29276+P25099+P30543); assay: Ratio of Ki values of A1 adenosine and A2 adenosine receptor; type: protein assay
Rattus norvegicus [3] = assay: Antihypertensive activity measured as change in heart rate was measured for a 10-h after 10 mg/kg oral dose; type: functional
Rattus norvegicus [4] = assay: Antihypertensive activity measured as change in blood pressure for a 10-h after 10 mg/kg oral dose in rat; type: functional

CCOc1cccc2c1CCCC2Nc1ncnc2c1ncn2[C@@H]1O[C@H](CO)[C@@H](O)[C@H]1O (stereo not given in full)
Change (Rattus norvegicus [1]): -42%
Ki (Adenosine receptor A1): 41.2 nM
Ki (Adenosine A2 receptor): 396 nM
Ratio [2]: 9.6
Change (Rattus norvegicus [3]): <10%

OC[C@H]1O[C@@H](n2cnc3c(NC4CCSc5ccccc54)ncnc32)[C@H](O)[C@@H]1O (stereo not given in full)
Ki (Adenosine receptor A1): 31.9 nM
Ki (Adenosine A2 receptor): 58.3 nM
Ratio [2]: 1.83
Change (Rattus norvegicus [4]): -23%
Change (Rattus norvegicus [3]): 29%

COc1ccc2c(c1)CCCC2Nc1ncnc2c1ncn2[C@@H]1O[C@H](CO)[C@@H](O)[C@H]1O (stereo not given in full)
Ki (Adenosine receptor A1): 71.5 nM
Ki (Adenosine A2 receptor): 2947 nM
Ratio [2]: 41.2
Change (Rattus norvegicus [4]): -30%
Change (Rattus norvegicus [3]): <10%

OC[C@H]1O[C@@H](n2cnc3c(NC4CSc5ccccc5C4)ncnc32)[C@H](O)[C@@H]1O (stereo not given in full)
Ki (Adenosine receptor A1): 3.6 nM
Ki (Adenosine A2 receptor): 229 nM
Ratio [2]: 63.9
Change (Rattus norvegicus [4]): -21%
Change (Rattus norvegicus [3]): -33%

OC[C@H]1O[C@@H](n2cnc3c(NC4COc5ccccc5C4)ncnc32)[C@H](O)[C@@H]1O (stereo not given in full)
Change (Rattus norvegicus [1]): -38%
Ki (Adenosine receptor A1): 13.6 nM
Ki (Adenosine A2 receptor): 496 nM
Ratio [2]: 36.5
Change (Rattus norvegicus [3]): -33%

CCOc1ccc2c(c1)C(Nc1ncnc3c1ncn3[C@@H]1O[C@H](CO)[C@@H](O)[C@H]1O)CCC2 (stereo not given in full)
Ki (Adenosine receptor A1): 68.6 nM
Ki (Adenosine A2 receptor): 5929 nM
Ratio [2]: 86.4
Change (Rattus norvegicus [4]): -39%
Change (Rattus norvegicus [3]): 32%

CC(C)COc1ccc2c(c1)CCC2Nc1ncnc2c1ncn2[C@@H]1O[C@H](CO)[C@@H](O)[C@H]1O (stereo not given in full)
Ki (Adenosine receptor A1): 28 nM
Ki (Adenosine A2 receptor): 9038 nM
Ratio [2]: 323
Change (Rattus norvegicus [4]): -39%
Change (Rattus norvegicus [3]): -21%

OC[C@H]1O[C@@H](n2cnc3c(NC4Cc5ccccc5C4)ncnc32)[C@H](O)[C@@H]1O
Ki (Adenosine receptor A1): 23.8 nM
Ki (Adenosine A2 receptor): 1642 nM
Ratio [2]: 68.9
Change (Rattus norvegicus [4]): -29%
Change (Rattus norvegicus [3]): -47%

CC(C)Oc1ccc2c(c1)C(Nc1ncnc3c1ncn3[C@@H]1O[C@H](CO)[C@@H](O)[C@H]1O)CCC2 (stereo not given in full)
Ki (Adenosine receptor A1): 425 nM
Ki (Adenosine A2 receptor): 43440 nM
Ratio [2]: 102
Change (Rattus norvegicus [4]): -41%
Change (Rattus norvegicus [3]): 27%

O=[N+]([O-])c1ccc2c(c1)CCC2Nc1ncnc2c1ncn2[C@@H]1O[C@H](CO)[C@@H](O)[C@H]1O (stereo not given in full)
Ki (Adenosine receptor A1): 40.5 nM
Ki (Adenosine A2 receptor): 3548 nM
Ratio [2]: 87.6
Change (Rattus norvegicus [4]): -14%
Change (Rattus norvegicus [3]): <10%

OC[C@H]1O[C@@H](n2cnc3c(NC4CCCc5ccc(O)cc54)ncnc32)[C@H](O)[C@@H]1O (stereo not given in full)
Ki (Adenosine receptor A1): 40.1 nM
Ki (Adenosine A2 receptor): 160 nM
Ratio [2]: 4
Change (Rattus norvegicus [4]): -17%
Change (Rattus norvegicus [3]): <10%

CCOc1ccc2c(c1)CCC2Nc1ncnc2c1ncn2[C@@H]1O[C@H](CO)[C@@H](O)[C@H]1O (stereo not given in full)
Ki (Adenosine receptor A1): 33.4 nM
Ki (Adenosine A2 receptor): 7487 nM
Ratio [2]: 224
Change (Rattus norvegicus [4]): -33%
Change (Rattus norvegicus [3]): -34%

OC[C@H]1O[C@@H](n2cnc3c(NC4CCOc5ccccc54)ncnc32)[C@H](O)[C@@H]1O (stereo not given in full)
Ki (Adenosine receptor A1): 63.5 nM
Ki (Adenosine A2 receptor): 339 nM
Ratio [2]: 5.3
Change (Rattus norvegicus [4]): -21%
Change (Rattus norvegicus [3]): 21%

OC[C@H]1O[C@@H](n2cnc3c(NCC4CCCCc5ccccc54)ncnc32)[C@H](O)[C@@H]1O (stereo not given in full)
Ki (Adenosine receptor A1): 118 nM
Ki (Adenosine A2 receptor): 857 nM
Ratio [2]: 7.3
Change (Rattus norvegicus [4]): <10%
Change (Rattus norvegicus [3]): <10%

COc1cc2c(cc1OC)CC(Nc1ncnc3c1ncn3[C@@H]1O[C@H](CO)[C@@H](O)[C@H]1O)C2
Ki (Adenosine receptor A1): 4.98 nM
Ki (Adenosine A2 receptor): 1383 nM
Ratio [2]: 278
Change (Rattus norvegicus [4]): -17%
Change (Rattus norvegicus [3]): -33%

OC[C@H]1O[C@@H](n2cnc3c(N[C@H]4CCc5ccccc54)ncnc32)[C@H](O)[C@@H]1O
Ki (Adenosine receptor A1): 310 nM
Ki (Adenosine A2 receptor): 23000 nM
Ratio [2]: 74
Change (Rattus norvegicus [4]): <10%
Change (Rattus norvegicus [3]): <10%

OC[C@H]1O[C@@H](n2cnc3c(NC4CCc5ccccc54)ncnc32)[C@H](O)[C@@H]1O (stereo not given in full)
Ki (Adenosine receptor A1): 45.8 nM
Ki (Adenosine A2 receptor): 1120 nM
Ratio [2]: 24.5
Change (Rattus norvegicus [4]): -22%
Change (Rattus norvegicus [3]): <10%

OC[C@H]1O[C@@H](n2cnc3c(NC4CCCc5c(OCc6ccccc6)cccc54)ncnc32)[C@H](O)[C@@H]1O (stereo not given in full)
Ki (Adenosine receptor A1): 138 nM
Ki (Adenosine A2 receptor): 511 nM
Ratio [2]: 3.7
Change (Rattus norvegicus [4]): -14%
Change (Rattus norvegicus [3]): 20%

OC[C@H]1O[C@@H](n2cnc3c(NC4CCCCc5ccccc54)ncnc32)[C@H](O)[C@@H]1O (stereo not given in full)
Ki (Adenosine receptor A1): 17.8 nM
Ki (Adenosine A2 receptor): 76.9 nM
Ratio [2]: 4.27
Change (Rattus norvegicus [4]): -42%
Change (Rattus norvegicus [3]): 28%

OC[C@H]1O[C@@H](n2cnc3c(NC4CCCc5c(O)cccc54)ncnc32)[C@H](O)[C@@H]1O (stereo not given in full)
Ki (Adenosine receptor A1): 20.4 nM
Ki (Adenosine A2 receptor): 175 nM
Ratio [2]: 8.6
Change (Rattus norvegicus [4]): <10%
Change (Rattus norvegicus [3]): <10%

OC[C@H]1O[C@@H](n2cnc3c(NCC4(O)CCc5ccccc54)ncnc32)[C@H](O)[C@@H]1O (stereo not given in full)
Ki (Adenosine receptor A1): 68 nM
Ki (Adenosine A2 receptor): 666 nM
Ratio [2]: 9.8
Change (Rattus norvegicus [4]): -23%
Change (Rattus norvegicus [3]): 17%

OC[C@H]1O[C@@H](n2cnc3c(NC4CCCc5ccccc54)ncnc32)[C@H](O)[C@@H]1O (stereo not given in full)
Ki (Adenosine receptor A1): 33.7 nM
Ki (Adenosine A2 receptor): 321 nM
Ratio [2]: 9.5
Change (Rattus norvegicus [4]): -51%
Change (Rattus norvegicus [3]): -24%

COc1cc2c(cc1OC)C(Nc1ncnc3c1ncn3[C@@H]1O[C@H](CO)[C@@H](O)[C@H]1O)CC2 (stereo not given in full)
Ki (Adenosine receptor A1): 115 nM
Ki (Adenosine A2 receptor): 3002 nM
Ratio [2]: 26.2
Change (Rattus norvegicus [4]): -19%
Change (Rattus norvegicus [3]): <10%
